Active and inactive are the calls of the source. No cut-off for these calls is given here.
Legend:
[1] = system: Staphylococcus aureus; assay: Antibacterial activity against vancomycin-intermediate resistant Staphylococcus aureus Mu50 assessed as enhancement factor at 50 uM in presence of Chloramphenicol (reference value: 16 ug/ml); type: functional
[2] = system: Staphylococcus aureus; assay: Antibacterial activity against methicillin-resistant Staphylococcus aureus BAA-2094 assessed as enhancement factor at 50 uM in presence of oxacillin (reference value: 8 to 16 ug/ml); type: functional
[3] = system: Staphylococcus aureus; assay: Antibacterial activity against methicillin-resistant Staphylococcus aureus BAA 42 assessed as enhancement factor at 50 uM in presence of vancomycin (reference value: 1 ug/ml); type: functional
[4] = system: Staphylococcus aureus; assay: Antibacterial activity against methicillin-resistant Staphylococcus aureus USA 300 assessed as enhancement factor at 50 uM in presence of penicillin G (reference value: 128 ug/ml); type: functional
[5] = system: Staphylococcus aureus; assay: Antibacterial activity against methicillin-resistant Staphylococcus aureus USA 300 assessed as fold reduction at 50 uM in presence of vancomycin; type: functional
[6] = biological target: T1, Sensor protein VraS (Staphylococcus aureus (strain N315)) (UniProt Q99SZ7); assay: Inhibition of GST tagged VraS ATPase activity in vancomycin-intermediate resistant Staphylococcus aureus assessed as residual activity at 0.1 to 300 uM by kinase-coupled assay relative to control; details: dose 0.1-300 µM
T1 sequence (whole entry): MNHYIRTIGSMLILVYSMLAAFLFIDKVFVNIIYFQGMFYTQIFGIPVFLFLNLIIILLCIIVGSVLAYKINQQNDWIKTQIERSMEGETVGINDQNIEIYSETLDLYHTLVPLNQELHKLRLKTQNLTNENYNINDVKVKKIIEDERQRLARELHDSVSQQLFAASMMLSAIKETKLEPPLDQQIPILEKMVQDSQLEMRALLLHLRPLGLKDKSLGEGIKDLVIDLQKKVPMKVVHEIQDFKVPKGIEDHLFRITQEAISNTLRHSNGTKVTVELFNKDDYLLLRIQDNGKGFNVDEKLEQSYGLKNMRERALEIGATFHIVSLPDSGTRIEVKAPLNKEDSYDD

[7] = system: Staphylococcus aureus; assay: Antibacterial activity against vancomycin-intermediate resistant Staphylococcus aureus Mu50 assessed as fold reduction at 50 uM in presence of oxacillin; type: functional
[8] = system: Staphylococcus aureus; assay: Antibacterial activity against methicillin-resistant Staphylococcus aureus BAA-1683 assessed as enhancement factor at 50 uM in presence of vancomycin (reference value: 2 ug/ml); type: functional
[9] = system: Staphylococcus aureus; assay: Antibacterial activity against methicillin-resistant Staphylococcus aureus BAA 41 assessed as enhancement factor at 50 uM in presence of oxacillin (reference value: 256 ug/ml); type: functional
[10] = system: Staphylococcus aureus; assay: Synergistic antibacterial activity against vancomycin-intermediate resistant Staphylococcus aureus Mu50 assessed as microbial growth at 50 uM in presence of vancomycin at 0.125 ug/ml by checkerboard assay; type: functional, organism-based
[11] = biological target: T2, Sensor protein VraS (Staphylococcus aureus (strain N315), UniProt Q99SZ7); assay: Inhibition of GST tagged VraS ATPase activity in vancomycin-intermediate resistant Staphylococcus aureus by kinase-coupled assay
T2 sequence (Q99SZ7 whole entry): T1 sequence (whole entry)

[12] = system: Staphylococcus aureus; assay: Synergistic antibacterial activity against vancomycin-intermediate resistant Staphylococcus aureus Mu50 assessed as fractional inhibitory concentration index at >400 times MIC in presence of penicillin G by checkerboard assay; type: functional
[13] = system: Staphylococcus aureus; assay: Antibacterial activity against methicillin-resistant Staphylococcus aureus ATCC 33592 assessed as enhancement factor at 50 uM in presence of oxacillin (reference value: 128 ug/ml); type: functional
[14] = system: Staphylococcus aureus; assay: Antibacterial activity against methicillin-resistant Staphylococcus aureus USA 300(BAA-1556) assessed as fold reduction in presence of vancomycin; type: functional
[15] = system: Staphylococcus aureus; assay: Synergistic antibacterial activity against vancomycin-intermediate resistant Staphylococcus aureus Mu50 assessed as fractional inhibitory concentration index at >400 times MIC in presence of oxacillin by checkerboard assay; type: functional
[16] = system: Staphylococcus aureus; assay: Antibacterial activity against vancomycin-intermediate resistant Staphylococcus aureus Mu50 assessed as enhancement factor at 50 uM in presence of oxacillin (reference value: 256 ug/ml); type: functional
[17] = system: Staphylococcus aureus; assay: Antibacterial activity against vancomycin-intermediate resistant Staphylococcus aureus Mu50 assessed as enhancement factor at 50 uM in presence of penicillin G (reference value: 16 ug/ml); type: functional
[18] = system: Staphylococcus aureus; assay: Synergistic antibacterial activity against vancomycin-intermediate resistant Staphylococcus aureus Mu50 assessed as microbial growth at 50 uM in presence of oxacillin at 2 to 4 ug/ml by checkerboard assay; type: functional, organism-based
[19] = system: Staphylococcus aureus; assay: Antibacterial activity against methicillin-resistant Staphylococcus aureus BAA-1683 assessed as enhancement factor at 50 uM in presence of oxacillin (reference value: 32 ug/ml); type: functional
[20] = system: Staphylococcus aureus; assay: Antibacterial activity against methicillin-resistant Staphylococcus aureus USA 300 assessed as enhancement factor at 50 uM in presence of oxacillin (reference value: 16 ug/ml); type: functional
[21] = system: Staphylococcus aureus; assay: Antibacterial activity against vancomycin-intermediate resistant Staphylococcus aureus Mu50 assessed as enhancement factor at 50 uM in presence of vancomycin (reference value: 4 ug/ml); type: functional
[22] = Cytotoxicity against MDCK cells assessed as reduction in cell viability incubated for 24 hrs by MTT assay; type: toxicity, cell-based, Canis lupus familiaris; details: dog
[23] = system: Staphylococcus aureus; assay: Suppression of oxacillin-induced pbp2 gene transcription in vancomycin-intermediate resistant Staphylococcus aureus Mu50 assessed as decrease in pbp2 transcript level by RT-qPCR analysis; type: functional, organism-based
[24] = system: Staphylococcus aureus; assay: Synergistic antibacterial activity against vancomycin-intermediate resistant Staphylococcus aureus Mu50 assessed as microbial growth at 50 uM in presence of penicillin G at 4 ug/ml by checkerboard assay; type: functional, organism-based
[25] = system: Staphylococcus aureus; assay: Antibacterial activity against methicillin-resistant Staphylococcus aureus ATCC 33592 assessed as fold reduction at 50 uM in presence of oxacillin (reference value: 128 ug/ml); type: functional
[26] = system: Staphylococcus aureus; assay: Antibacterial activity against methicillin-resistant Staphylococcus aureus USA 300 assessed as enhancement factor at 50 uM in presence of vancomycin (reference value: 2 ug/ml); type: functional
[27] = system: Staphylococcus aureus; assay: Suppression of vancomycin-induced pbp2 gene transcription in vancomycin-intermediate resistant Staphylococcus aureus Mu50 assessed as decrease in pbp2 transcript level by RT-qPCR analysis; type: functional, organism-based
[28] = system: Staphylococcus aureus; assay: Antibacterial activity against methicillin-resistant Staphylococcus aureus BAA-2094 assessed as enhancement factor at 50 uM in presence of vancomycin (reference value: 2 ug/ml); type: functional
[29] = system: Staphylococcus aureus; assay: Suppression of oxacillin-induced mecA gene transcription in vancomycin-intermediate resistant Staphylococcus aureus Mu50 assessed as decrease in mecA transcript level by RT-qPCR analysis; type: functional, organism-based
[30] = system: Staphylococcus aureus; assay: Antibacterial activity against methicillin-resistant Staphylococcus aureus USA 300 assessed as enhancement factor at 50 uM in presence of Chloramphenicol (reference value: 2 ug/ml); type: functional
[31] = system: Staphylococcus aureus; assay: Suppression of vancomycin-induced vraSR gene transcription in vancomycin-intermediate resistant Staphylococcus aureus Mu50 assessed as decrease in vraSR transcript level by RT-qPCR analysis; type: functional, organism-based
[32] = system: Staphylococcus aureus; assay: Antibacterial activity against methicillin-resistant Staphylococcus aureus BAA 41 assessed as enhancement factor at 50 uM in presence of vancomycin (reference value: 2 ug/ml); type: functional
[33] = system: Staphylococcus aureus; assay: Antibacterial activity against methicillin-resistant Staphylococcus aureus BAA 42 assessed as enhancement factor at 50 uM in presence of oxacillin (reference value: 64 ug/ml); type: functional
[34] = system: Staphylococcus aureus; assay: Suppression of oxacillin-induced vraSR gene transcription in vancomycin-intermediate resistant Staphylococcus aureus Mu50 assessed as decrease in vraSR transcript level by RT-qPCR analysis; type: functional, organism-based
[35] = system: Staphylococcus aureus; assay: Antibacterial activity against methicillin-resistant Staphylococcus aureus USA 300 assessed as fold reduction at 50 uM in presence of Chloramphenicol; type: functional
[36] = system: Staphylococcus aureus; assay: Suppression of vancomycin-induced mecA gene transcription in vancomycin-intermediate resistant Staphylococcus aureus Mu50 assessed as decrease in mecA transcript level by RT-qPCR analysis; type: functional, organism-based
[37] = system: Staphylococcus aureus; assay: Antibacterial activity against methicillin-resistant Staphylococcus aureus ATCC 33592 assessed as enhancement factor at 50 uM in presence of vancomycin (reference value: 2 ug/ml); type: functional
[38] = system: Staphylococcus aureus; assay: Synergistic antibacterial activity against vancomycin-intermediate resistant Staphylococcus aureus Mu50 assessed as fractional inhibitory concentration index at […] in presence of vancomycin by checkerboard assay; type: functional
[39] = system: Staphylococcus aureus; assay: Antibacterial activity against vancomycin-intermediate resistant Staphylococcus aureus Mu50 assessed as fold reduction at 50 uM in presence of penicillin G; type: functional
[40] = system: Staphylococcus aureus; assay: Antibacterial activity against methicillin-resistant Staphylococcus aureus ATCC 33592 assessed as fold reduction at 50 uM in presence of vancomycin; type: functional
[41] = system: Staphylococcus aureus; assay: Antibacterial activity against vancomycin-intermediate resistant Staphylococcus aureus Mu50 assessed as fold reduction at 50 uM in presence of vancomycin; type: functional

CCSc1nc2ccc(NC(=O)NC(c3cc(C)ccn3)C3CC3)cc2o1 (stereo not given)
MIC [1]: 16 µg/mL
MIC [2]: < 2 µg/mL
MIC [3]: < 0.25 µg/mL
MIC [4]: 128 µg/mL
fold change (FC) [5]: 2
Activity [6]: 35%
fold change (FC) [7]: 32
MIC [8]: 0.5 µg/mL
MIC [9]: < 2 µg/mL
Activity [10]: Active
IC50 [11]: 940 nM
fractional inhibitory concentration index (FICI) [12]: <=0.31
MIC [13]: < 2 µg/mL
fold change (FC) [14]: 4
fractional inhibitory concentration index (FICI) [15]: <=0.31
MIC [16]: 8 µg/mL
MIC [17]: 4 µg/mL
Activity [18]: Active
MIC [19]: < 2 µg/mL
MIC [20]: 16 µg/mL
MIC [21]: 0.25 µg/mL
IC50 at 24 h [22]: > 100000 nM
Activity [23]: Active
Activity [24]: Active
fold change (FC) [25]: 16
MIC [26]: 0.5 µg/mL
Activity [27]: Active
MIC [28]: 0.5 µg/mL
Activity [29]: Active
MIC [30]: 0.25 µg/mL
Activity [31]: Active
MIC [32]: 0.25 µg/mL
MIC [33]: < 2 µg/mL
Activity [34]: Active
fold change (FC) [35]: 4
Activity [36]: Active
MIC [37]: < 0.25 µg/mL
fractional inhibitory concentration index (FICI) [38]: <0.12
fold change (FC) [39]: 4
fold change (FC) [40]: ~4
fold change (FC) [41]: 16

Cc1ccnc(C(NC(=O)Nc2ccc3c(c2)OCC(=O)N3C)C2CC2)c1 (stereo not given)
MIC [16]: 256 µg/mL
MIC [21]: 4 µg/mL

Cc1ccnc(C(NC(=O)Nc2ccc3nnn(C)c3c2)C2CC2)c1 (stereo not given)
MIC [16]: 256 µg/mL
MIC [21]: 4 µg/mL

Source: ChEMBL document CHEMBL6134802, “A benzoxazolyl urea inhibits VraS and enhances antimicrobials against vancomycin intermediate-resistant Staphylococcus aureus” (Bioorg Med Chem Lett, 2025)
